Assay [1] concerns CIA. As to conditions: in vivo; cited from earlier work.
The test system of assay [2] is SE-activated NO signaling. The experiment in a line: Signal transduction assay: inhibition of SE-activated NO signaling. In kind it is cell-based. As to the method:
(§1) Surface plasmon resonance (SPR) and signal transduction assays were performed as previously described (Holoshitz et al., 2012; supra; Ling et al., 2010. PLoS ONE 5: e11703; Ling et al., 2012 Arthritis Rheum.). In vitro assays for OC differentiation, using primary bone marrow cells (BMCs) isolated from femurs and tibias, or PBMCs isolated from healthy blood donors were performed as previously described (Holoshitz et al., 2012; supra).

In the next assay the target is T1, recombinant CRT (Mus musculus, UniProt P14211).
T1 construct: made in house
T1 sequence (P14211 18-416): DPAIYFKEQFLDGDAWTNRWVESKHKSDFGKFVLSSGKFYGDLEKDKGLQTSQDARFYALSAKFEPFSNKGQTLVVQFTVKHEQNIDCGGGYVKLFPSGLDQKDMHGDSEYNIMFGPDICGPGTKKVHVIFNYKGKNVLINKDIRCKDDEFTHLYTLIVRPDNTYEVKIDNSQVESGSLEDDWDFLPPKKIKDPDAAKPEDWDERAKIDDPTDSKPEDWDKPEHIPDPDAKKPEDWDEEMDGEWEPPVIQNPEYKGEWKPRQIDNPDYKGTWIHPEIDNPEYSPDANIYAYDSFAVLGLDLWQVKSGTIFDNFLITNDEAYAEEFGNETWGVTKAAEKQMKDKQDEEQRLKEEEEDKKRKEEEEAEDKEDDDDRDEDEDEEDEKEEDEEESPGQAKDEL
The experiment in a line: Surface plasmon resonance (SPR) binding assay: binding to CRT and competitive inhibition of SE ligand 65-79*0401 binding. As to conditions: for Potency of competitive inhibition of SE ligand binding to CRT: result in words.
Description: Ficoll-Paque™, 4,5-Diaminofluorescein Diacetate (DAF-2 DA), 5-(and -6)-chloromethyl-2′,7′ dichlorodihydrofluorescein (CM-H2DCFDA), macrophage colony-stimulating factor (M-CSF), RANKL, denatured chicken collagen type II (CII), and complete Freund's Adjuvant (CFA) were purchased from previously listed sources. All other commercial reagents were purchased from Sigma (St Louis, Mo.). Linear peptides were synthesized and purified (>90%) as previously described (Ling et al., 2006 supra; Ling et al., 2007 Arthritis Res Ther 9: R5; Ling et al., 2007 The Journal of Immunology 179: 6359-6367; De Almeida et al., supra). Peptidomimetics were prepared by backbone cyclization (Kotake et al., 1999 J. Clin. Invest. 103: 1345-1352) of a 5mer peptide carrying the sequence DKCLA (SEQ ID NO: 1). Recombinant mouse CRT was purified as described (Ling and Holoshitz. 2007 The Journal of Immunology 179: 6359-6367).
as §1
On the technique in general: In SPR one partner is held on a chip, and binding of the other changes the refractive index at the surface.

Assay [3] relates to SE-activated OC differentiation in human cells (PBMCs). The experiment in a line: In vitro OC differentiation assay, human PBMCs. In kind it is cell-based. The conditions noted are these: FIG. 2D. As to the method:
Isolation of human peripheral blood mononuclear cells (PBMCs) and culture of M1 fibroblasts were previously described (Holoshitz et al., 2012, J. Immunol.). DBA/1 mice, 6 to 10 weeks old, were purchased from the Jackson Laboratory (Bar Harbor, Me.). Mice were maintained and housed at the University of Michigan-Unit for Laboratory Animal Medicine facility, and all experiments were performed in accordance with protocols approved by University of Michigan Committee on Use and Care of Animals.
as §1

The subject of assay [4] is osteoclastogenesis in mouse bone marrow cell cultures. The experiment in a line: In vitro OC differentiation assay, mouse bone marrow cell cultures. As to conditions: FIG. 2E; for Inhibition of basal osteoclastogenesis: mouse bone marrow cell cultures; for Inhibition of SE-activated OC differentiation: mouse cells. In kind it is cell-based. As to the method: as §1
In a further assay the test system is osteoclastogenesis. The experiment in a line: In vitro osteoclastogenesis / OC differentiation, cells not given. In kind it is cell-based. As to the method:
as §1

The subject of assay [5] is CIA. As to the kind of experiment: Collagen-induced arthritis (CIA) in DBA/1 mice. In kind it is in vivo, mouse. On the procedure: DBA/1 mice (7-10 week old) were immunization as described (Holoshitz, 2012, J. Immunol.) with chicken CII in CFA. In brief, 50 μl of an emulsion containing 100 μg of CII in 25 μl of 0.05 M acetic acid and 25 μl of CFA was injected intradermally at the base of the tail. Mice were injected once per week intraperitoneally with either 1 or 10 pg (HS4-4)c Trp at in 50 μl of PBS. Arthritis severity was determined as previously described (Holoshitz, 2012, J. Immunol.), using a visual scoring system on a 4-point scale for each paw: 0=no arthritis, 1=swelling and redness confined to digits, 2=minor swelling and redness spreading from the digits to the distal paw, and 3=major swelling and redness extending proximally from the paw.
Limbs were dissected and decalcified in 10% EDTA for 14 days at 4° C. After decalcification, the specimens were processed for paraffin embedding and serial sectioned. The histological sections were deparaffinized, rehydrated and stained with hematoxylin and eosin (H&E), or for tartrate-resistant acid phosphatase (TRAP) activity using a commercial kit (Kamiya Biomedical Company, Seattle, Wash.). To determine OC abundance, TRAP-positive multinucleated cells were counted. Data represent mean±SEM of the total number of OCs in front and rear paws+knees. Bone damage was evaluated by radiography and micro-computed tomography (micro-CT) as previously described (Holoshitz, 2012, J. Immunol.).

Another assay relates to rodent cells. The experiment in a line: Literature: in vitro inhibition in rodent cells (Fridman et al.). The class given is cell-based.
For assay [6], the target named is T2, recombinant mouse CRT (calreticulin) (mouse, UniProt P14211 18-416, limits assumed).
T2 construct: also called recombinant CRT
T2 sequence (looked up): T1 sequence (P14211 18-416)
The experiment in a line: SPR, peptide as analyte, recombinant CRT immobilized.

Here are results for eleven molecules from patent publication US9725484B2, “Methods and compositions for the treatment of bone remodeling disorders” (THE REGENTS OF THE UNIVERSITY OF MICHIGAN, priority 2013, dated 2017).

Starred links: 1 amine or outer side, 2 acyl side, 3 side chain; linkers in the order of their positions; H or OH if unused. Positions of bridges follow the written chain, without caps; N, C: chain ends. Non-standard residues stand in square brackets, D forms with d. Residues, ends and D or L forms follow the SMILES beside them. No end group written: not given here. CO = O=C([*:1])[*:2]; Nlys = NCCCCNCC(=O)O

Regarding `CN1CCN(c2cccc(Nc3nc4c(-c5ccc(S(C)(=O)=O)cc5)cccn4n3)c2)CC1` [CEP-33779], the “Dose range with therapeutic efficacy in CIA” value (from here on “Dose range … in CIA”) with CIA [1] is “mg/kg-range”.

Regarding `C[C@H](NC(=O)CN1CCCCNC(=O)NCCCCN(C(=O)[C@@H](N)Cc2c[nH]c3ccccc23)CC(=O)N[C@@H](CC(=O)O)C(=O)N[C@@H](CCCCN)C(=O)N[C@@H](CS)C1=O)C(N)=O` [HS(4-4)c Trp] (H-W[Nlys]DKC[Nlys]A-NH2; linker 2-6 via CO), in [2], half-maximal inhibition (IC50) required 0.0016 nM and the “SEAL potency relative to the linear DKCLA peptide” value is recorded as 1,000,000 times. Further, in assay [2] (result in words), the “Concentrations blocking the SE signaling effects” value is on record as “low-pM”. For the same molecule, at recombinant CRT, the “Potency of competitive inhibition of SE ligand binding to CRT” value is “low-pM”. Moreover, in [3], the “Inhibition of SE-activated OC differentiation” value was “sub-pM”. In assay [4], the “Inhibition of basal osteoclastogenesis” value is recorded as “sub-pM” and the “Inhibition of SE-activated OC differentiation” value is on record as “sub-pM”. Also, the “Concentrations with inhibitory effect on OC differentiation” value in the assay on osteoclastogenesis (result in words) was “sub-to-low-pM”. For the same molecule, in the assay with CIA [5] (mouse, in vivo), the “Dose range achieving disease amelioration effects” value is recorded as “ng/kg-range” and the “In vivo potency relative to INCB028050, SB1518, CEP-33779” value was 1,000,000 fold. Besides, in the assay with CIA [5] (weekly ip), the Arthritis incidence entry is “lower incidence”; the Arthritis severity entry was “significantly milder”; the “Bone destruction, micro-CT imaging of joints” value is given as “lesser extent of bone destruction”; the “OC abundance, synovial tissue histology (TRAP)” value is “lower OC abundance”. In addition, in the assay on CIA [5] (weekly ip, low-picogram doses), the Arthritis onset result is reported as “delayed onset”.

Turning to `CCS(=O)(=O)N1CC(CC#N)(n2cc(-c3ncnc4[nH]ccc34)cn2)C1` [INCB028050], the “Potency lower than compound HS(4-4)c Trp” value with rodent cells is on record as approximately 1000 fold. The “Dose range … in CIA” value in the assay with CIA [1] is recorded as “mg/kg-range”.

Consider `C1=C/COCc2cc(ccc2OCCN2CCCC2)Nc2nccc(n2)-c2cccc(c2)COC/1` [SB1518], for which, in the assay on CIA [1], the “Dose range … in CIA” value was “mg/kg-range”.

Turning to DKCLA [Linear DKCLA], the half-maximal inhibitory concentration (IC50) – broadly, the point on the concentration scale where inhibition reaches its midpoint – in assay [2] turned out to be 35000 nM. Further, the “Block of NO induction by the SE ligand” value in [2] (result in words) was “completely blocked”. Further, at recombinant CRT (peptide in the analyte, CRT immobilized on the biosensor chip), the “Binding to CRT” value is on record as “bound to CRT”. The “Potency of competitive inhibition of SE ligand binding to CRT” value on recombinant CRT is listed as “low-μM-range”.

On to “HS(3-3)c Trp: backbone cyclic DKCLA (cDKCLA) peptidomimetic; cyclization linker m is 3 and n is 3 (bridge (positions not given here); not fully specified (bridges); also: backbone cyclized, linker m=3, n=3, 'Trp' in name unexplained)”, for which, in assay [2], the IC50 was determined as 0.0018 nM. Moreover, the “Inhibition of SE-activated OC differentiation” value in [3] is on record as “sub-pM”. In addition, in assay [4], the “Inhibition of basal osteoclastogenesis” value is given as “sub-pM” and the “Inhibition of SE-activated OC differentiation” value was “sub-pM”.

As for “HS(3-4)c Trp (DKCLA; bridge (positions not given here); not fully specified (bridges); also: backbone cyclized, linker m=3, n=4, 'Trp' in name unexplained)”, in assay [2], inhibition was half-maximal at 4300 nM (IC50). Further, the Inhibition of osteoclastogenesis result in the assay with osteoclastogenesis (FIG. 2F) is “does not inhibit”. For the same molecule, in the assay with CIA [5] (weekly ip), the Arthritis incidence result was “does not inhibit” and the Arthritis severity result is on record as “does not inhibit”.

“HS(4-6)c Trp: backbone cyclic DKCLA (cDKCLA) peptidomimetic; cyclization linker m is 4 and n is 6 (bridge (positions not given here); not fully specified (bridges); also: backbone cyclized, linker m=4, n=6, 'Trp' in name unexplained)” showed an IC50 in [2] of 560 nM.

For “HS(6-2)c Trp: backbone cyclic DKCLA (cDKCLA) peptidomimetic; cyclization linker m is 6 and n is 2 (bridge (positions not given here); not fully specified (bridges); also: backbone cyclized, linker m=6, n=2, 'Trp' in name unexplained)”, in assay [2], the IC50 amounted to 770 nM.

Turning to “HS(6-4)c Trp: backbone cyclic DKCLA (cDKCLA) peptidomimetic; cyclization linker m is 6 and n is 4 (bridge (positions not given here); not fully specified (bridges); also: backbone cyclized, linker m=6, n=4, 'Trp' in name unexplained)”, half-maximal inhibition in assay [2] (IC50) required 6.3 nM.

With DKCLA (Synthetic linear 5mer; analyte in SPR) [linear DKCLA (SEQ ID NO: 1) peptide], the binding result in assay [6] is recorded as “binds”.
